Reference: patent US10669268B2, “Bicyclic derivatives” (Hoffmann-La Roche Inc., priority 2012, dated 2020)

Biological target: ATX (human His-tagged) (Homo sapiens (Human), UniProt Q13822)
Experiment: Human ATX enzyme inhibition assay (fluorescence quenching, MR121 substrate)
Assay type: biochemical
Settings: 30 nM ATX, 1 μM MR121 substrate, 30° C., pH 8.0
Outline: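 Tris-HCl buffer at pH 8.0 contained 140 mM NaCl, 5 mM KCl, 1 mM each CaCl2 and MgCl2, and 0.01% Triton X-100. The MR121 substrate (1 μM final) was incubated with enzyme for 15 min at 30 °C, and activity was read by fluorescence quenching.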

Row | SMILES | IC50 [µM]
1 | CS(=O)(=O)c1cc(Cl)cc(COC(=O)N2C[C@@H]3CN(C(=O)[C@@H]4CCc5[nH]nnc5C4)C[C@H]3C2)c1 [Example 4.60, (3aS,6aS)-5-((R)-4,5,6,7-tetrahydro-1H-benzotriazole-5-carbonyl)-hexahydro-pyrrolo[3,4-c]pyrrole-2-carboxylic acid 3-chloro-5-methanesulfonyl-benzyl ester] | 0.005
2 | O=C(OCc1cc(Cl)cc(Cl)c1)N1C[C@@H]2CN(C(=O)c3ccc4[nH]ncc4c3)C[C@@H]2C1 [Example 1.07, (3aR,6aS)-3,5-dichlorobenzyl 5-(1H-indazole-5-carbonyl)hexahydropyrrolo[3,4-c]pyrrole-2(1H)-carboxylate] | 1.03
3 | O=C(OCc1ccc(OC(F)(F)F)cn1)N1C[C@@H]2CN(C(=O)c3ccc4[nH]nnc4c3)C[C@H]2C1 [Example 4.45, (3aS,6aS)-5-(1H-benzotriazole-5-carbonyl)-hexahydro-pyrrolo[3,4-c]pyrrole-2-carboxylic acid 5-trifluoromethoxy-pyridin-2-ylmethyl ester] | 0.007
4 | O=C(c1ccc2[nH]nnc2c1)N1CC[C@@H]2CN(c3nnc(-c4ccc(Cl)cc4)o3)C[C@H]2C1 (relative stereo) [Example 14, (1H-Benzotriazol-5-yl)-{trans-2-[5-(4-chloro-phenyl)-[1,3,4]oxadiazol-2-yl]-octahydro-pyrrolo[3,4-c]pyridin-5-yl}-methanone] | 0.926
5 | CS(=O)(=O)c1cc(COC(=O)N2C[C@H]3CCN(C(=O)c4ccc5[nH]nnc5c4)C[C@@H]3C2)cc(C(F)(F)F)c1 (relative stereo) [Example 4.01, trans-5-(1H-benzotriazole-5-carbonyl)-octahydro-pyrrolo[3,4-c]pyridine-2-carboxylic acid 3-methanesulfonyl-5-trifluoromethyl-benzyl ester] | 0.041
6 | O=C(OCC1CCCCC1)N1C[C@@H]2CN(C(=O)c3ccc4[nH]nnc4c3)C[C@@H]2C1 [Example 4.19, (3aS,6aR)-5-(1H-benzotriazole-5-carbonyl)-hexahydro-pyrrolo[3,4-c]pyrrole-2-carboxylic acid cyclohexyl methyl ester] | 1.58
7 | Cc1cc(OC(F)(F)F)ccc1/C=C/C(=O)N1CC[C@@H]2CN(C(=O)c3ccc4[nH]nnc4c3)C[C@@H]2CC1 [Example 1.18, (E)-1-((3aR,8aS)-2-(1H-benzo[d][1,2,3]triazole-5-carbonyl)octahydropyrrolo[3,4-d]azepin-6(7H)-yl)-3-(2-methyl-4-(trifluoromethoxy)phenyl)prop-2-en-1-one] | 0.01
8 | CC(C)Oc1cc(C#N)ccc1COC(=O)N1C[C@@H]2CN(C(=O)c3ccc4[nH]nnc4c3)C[C@H]2C1 [Example 4.65, (3aS,6aS)-5-(1H-benzotriazole-5-carbonyl)-hexahydro-pyrrolo[3,4-c]pyrrole-2-carboxylic acid 4-cyano-2-isopropoxy-benzyl ester] | 0.014
9 | CCOc1cc(C(=O)N2C[C@@H]3CN(C(=O)[C@@H]4CCc5[nH]nnc5C4)C[C@H]3C2)nc2ccccc12 [Example 1.60, (4-ethoxyquinolin-2-yl)((3aS,6aS)-5-((R)-4,5,6,7-tetrahydro-1H-benzo[d][1,2,3]triazole-5-carbonyl)hexahydropyrrolo[3,4-c]pyrrol-2(1H)-yl)methanone] | 0.012
10 | O=C(OCc1ccc(OC(F)(F)F)cc1)N1C[C@@H]2CN(C(=O)c3ccc4[nH]nnc4c3F)C[C@H]2C1 [Example 1.52, (3aS,6aS)-5-(4-fluoro-1H-benzotriazole-5-carbonyl)-hexahydro-pyrrolo[3,4-c]pyrrole-2-carboxylic acid 4-trifluoromethoxy-benzyl ester] | 0.016
11 | O=C(OCC1C2CCCCC21)N1C[C@@H]2CN(C(=O)c3ccc4[nH]nnc4c3)C[C@@H]2C1 (stereo partly drawn) [Example 4.13, (3aS,6aR)-5-(1H-benzotriazole-5-carbonyl)-hexahydro-pyrrolo[3,4-c]pyrrole-2-carboxylic acid bicyclo[4.1.0]hept-7-ylmethyl ester] | 2.91
12 | O=C(OCc1ccc(OC(F)(F)F)cc1)N1C[C@@H]2CN(C(=O)[C@@H]3CCc4[nH]nnc4C3)C[C@H]2C1 [Example 4.58, (3aS,6aS)-5-((R)-4,5,6,7-tetrahydro-1H-benzotriazole-5-carbonyl)-hexahydro-pyrrolo[3,4-c]pyrrole-2-carboxylic acid 4-trifluoromethoxy-benzyl ester] | 0.0052
13 | O=C(OCc1ccc(OC(F)(F)F)cc1)N1C[C@@H]2CN(C(=O)c3ccc4[nH]nnc4c3Cl)C[C@H]2C1 [Example 1.55, (3aS,6aS)-5-(4-chloro-1H-benzotriazole-5-carbonyl)-hexahydro-pyrrolo[3,4-c]pyrrole-2-carboxylic acid 4-trifluoromethoxy-benzyl ester] | 0.014

Next, values leading:

Row | IC50 [µM] | SMILES
14 | 0.02 | COc1cc(C(=O)N2C[C@H]3CN(C(=O)c4ccc5[nH]nnc5c4)C[C@@H]3C2)cc2ccccc12 [Example 19.15, (1H-benzotriazol-5-yl)-[(3aR,6aR)-5-(4-methoxy-naphthalene-2-carbonyl)-hexahydro-pyrrolo[3,4-c]pyrrol-2-yl]-methanone]
15 | 0.911 | O=C1N[C@@H]2CCN(C(=O)N3C[C@H]4CCN(C(=O)/C=C/c5ccc(OC(F)(F)F)cc5)CC[C@H]4C3)C[C@@H]2O1 [Example 8.03]
16 | 3.4 | CC(C)(Cc1cccc(Cl)c1)C(=O)N1CC[C@@H]2CN(C(=O)NCc3cnn[nH]3)C[C@@H]2CC1 [Example 9.08]
17 | 0.002 | CC(C)(C)c1cc(C#N)ccc1OCC(=O)N1C[C@@H]2CN(C(=O)[C@@H]3CCc4[nH]nnc4C3)C[C@H]2C1 [Example 19.31, 4-[2-[(3aS,6aS)-5-[(5R)-4,5,6,7-tetrahydro-1H-benzotriazole-5-carbonyl]-1,3,3a,4,6,6a-hexahydropyrrolo[3,4-c]pyrrol-2-yl]-2-oxoethoxy]-3-tert-butylbenzonitrile]
18 | 0.977 | CN(C)S(=O)(=O)c1ccc(/C=C/C(=O)N2CC[C@@H]3CN(C(=O)c4ccc5[nH]nnc5c4)C[C@@H]3CC2)cc1 [Example 15.08]
19 | 0.007 | O=C(c1ccc(-c2ccc(Cl)cc2)cc1)N1C[C@@H]2CN(C(=O)c3ccc4[nH]nnc4c3)C[C@H]2C1 [Example 19.02, (1H-benzotriazol-5-yl)-[(3aR,6aR)-5-(4′-chloro-biphenyl-4-carbonyl)-hexahydro-pyrrolo[3,4-c]pyrrol-2-yl]-methanone]
20 | 0.005 | Cc1cc(OCC(=O)N2C[C@@H]3CN(C(=O)c4ccc5[nH]nnc5c4)C[C@H]3C2)c(C(C)C)cc1Cl [Example 15.64]
21 | 0.008 | O=C(/C=C/c1ccc(OC(F)(F)F)cc1)N1C[C@@H]2CN(C(=O)c3ccc4[nH]nnc4c3)CC[C@H]2C1 (single isomer, unassigned) [Example 15.26]
22 | 0.038 | O=C(/C=C/c1ccc(OC(F)(F)F)cc1)N1CC[C@@H]2CN(C(=O)NCc3cnn[nH]3)C[C@@H]2CC1 [Example 9.01]
23 | 0.068 | O=C(CCc1ccc(C(F)(F)F)nc1)N1C[C@@H]2CN(C(=O)c3ccc4[nH]nnc4c3)C[C@H]2C1 [Example 15.62]
24 | 3.95 | O=C(/C=C/c1cccnc1)N1CC[C@@H]2CN(C(=O)c3ccc4[nH]nnc4c3)C[C@@H]2CC1 [Example 15.17]
25 | 0.921 | COc1cc(C#N)ccc1OCC(=O)N1C[C@@H]2CN(C(=O)c3ccc4[nH]nnc4c3)C[C@H]2C1 [Example 15.93]
26 | 0.006 | O=C(/C=C/c1cc(Cl)cc(OC(F)(F)F)c1)N1C[C@@H]2CN(C(=O)c3ccc4[nH]nnc4c3)C[C@H]2C1 [Example 15.48]
27 | 0.034 | O=C(/C=C/c1ccc(OC(F)(F)F)cc1)N1C[C@H]2CCN(C(=O)c3ccc4[nH]nnc4c3)CC[C@H]2C1 [Example 15.10]
28 | 0.018 | CS(=O)(=O)c1cc(Cl)cc(/C=C/C(=O)N2C[C@@H]3CN(C(=O)c4ccc5[nH]nnc5c4)C[C@H]3C2)c1 [Example 15.46]
29 | 0.006 | COc1cc(/C=C/C(=O)N2C[C@@H]3CN(C(=O)c4ccc5[nH]nnc5c4)C[C@H]3C2)cc(OC(F)(F)F)c1 [Example 15.51, (E)-1-[(3aR,6aR)-5-(1H-benzotriazole-5-carbonyl)-hexahydro-pyrrolo[3,4-c]pyrrol-2-yl]-3-(3-methoxy-5-trifluoromethoxy-phenyl)-prop-2-ene-1-one]
30 | 0.096 | O=C(/C=C/c1cc(F)cc(C(F)(F)F)c1)N1C[C@@H]2CN(C(=O)c3ccc4[nH]nnc4c3)C[C@@H]2C1 [Example 15.02]
31 | 0.013 | O=C(/C=C/c1cc(Cl)cc(Cl)c1)N1C[C@H]2CCN(C(=O)c3ccc4[nH]nnc4c3)C[C@@H]2C1 [Example 15.76]
32 | 0.036 | CCOc1cc(C#N)ccc1OCC(=O)N1C[C@@H]2CN(C(=O)c3ccc4[nH]nnc4c3)C[C@H]2C1 [Example 19.08, 4-{2-[(3aS,6aS)-5-(1H-benzotriazole-5-carbonyl)-hexahydro-pyrrolo[3,4-c]pyrrol-2-yl]-2-oxo-ethoxy}-3-ethoxy-benzonitrile]
33 | 0.047 | O=C(CCc1ccc(OC(F)(F)F)cc1)N1CC[C@@H]2CN(C(=O)c3ccc4[nH]nnc4c3)C[C@H]2C1 (relative stereo) [Example 17.15, 1-[trans-2-(1H-benzotriazole-5-carbonyl)-octahydro-pyrrolo[3,4-c]pyridin-5-yl]-3-(4-trifluoromethoxy-phenyl)-propan-1-one]
34 | 0.029 | O=C(CCc1ccc(-c2ccccc2)nc1)N1C[C@@H]2CN(C(=O)c3ccc4[nH]nnc4c3)C[C@H]2C1 [Example 15.85]
35 | 0.01 | O=C(CCc1ccc(OC(F)(F)F)cc1)N1C[C@H]2CN(C(=O)c3ccc4[nH]nnc4c3)C[C@@H]2C1 [Example 19.12, 1-[(3aS,6aS)-5-(1H-benzotriazole-5-carbonyl)-hexahydro-pyrrolo[3,4-c]pyrrol-2-yl]-3-(4-trifluoromethoxy-phenyl)-propan-1-one]
